Measurements taken from patent publication US10202361B2, “Pyridazinones as herbicides” (E I DU PONT DE NEMOURS AND COMPANY, priority 2014, dated 2019).
Where two headings read alike, the source gives them in different places.

Key:
Type in all cases: in vivo
[1] = test system: ducksalad (Heteranthera limosa); assay: Test B flooded paddy test; details: Heteranthera limosa, 312 h; Flood, 250 g ai/ha; scale of 0 to 100, 0 is no effect, 100 is complete control; 13 to 15 d; read-out: Plant response rating, Ducksalad
Summary of the method: (§1)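 Plants were raised to the 2-leaf stage, then pots were flooded to 3 cm above the soil and the test compound was applied directly into the paddy water, with that depth held throughout. After 13 to 15 d in a greenhouse, injury was rated visually against untreated controls on a 0–100 scale (0 = no effect, 100 = complete control).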

[2] = test system: sedge, umbrella (small-flower umbrella sedge, Cyperus difformis); assay: Test B flooded paddy test; details: Cyperus difformis, 312 h; Flood, 250 g ai/ha; scale of 0 to 100, 0 is no effect, 100 is complete control; 13 to 15 d; read-out: Plant response rating, Sedge, Umbrella
Summary of the method: as §1

[3] = test system: barnyardgrass (Echinochloa crus-galli); assay: Test B flooded paddy test; details: Echinochloa crus-galli, 312 h; Flood, 250 g ai/ha; scale of 0 to 100, 0 is no effect, 100 is complete control; 13 to 15 d; read-out: Plant response rating, Barnyardgrass
Summary of the method: as §1

rice (Oryza sativa) = assay: Test B flooded paddy test; details: Oryza sativa, 312 h; Flood, 250 g ai/ha; scale of 0 to 100, 0 is no effect, 100 is complete control; 13 to 15 d; read-out: Plant response rating, Rice
Summary of the method: as §1

[4] = test system: pigweed (Amaranthus retroflexus); assay: Test A pre-/postemergence greenhouse herbicide test; details: Amaranthus retroflexus, 240 h, 0 to 100 scale (0 no effect, 100 complete control), approx. 10 d, read-out: Plant response rating, Pigweed; for pest or weed control at 125 g/ha: 125 g ai/ha; for pest or weed control at 500 g/ha: 500 g ai/ha
Summary of the method: (§2)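 Seeds sown in loam–sand blend received a directed preemergence soil spray; postemergence spray was applied at the same time to plants 2–10 cm tall at one- to two-leaf stage. Compounds were in non-phytotoxic solvent with surfactant. Visual injury versus untreated controls after ~10 d in greenhouse, 0–100 scale (100 = complete control).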

corn (Zea mays) = assay: as above; details: Zea mays, 240 h, 0 to 100 scale (0 no effect, 100 complete control), approx. 10 d; for Corn plant response rating (crop injury, 0 = no effect, 100 = complete kill) at 125 g/ha: 125 g ai/ha; for Corn plant response rating (crop injury, 0 = no effect, 100 = complete kill) at 500 g/ha: 500 g ai/ha
Summary of the method: as §2

[5] = test system: foxtail, giant (giant foxtail, Setaria faberii); assay: as above; details: Setaria faberi, 240 h, 0 to 100 scale (0 no effect, 100 complete control), approx. 10 d, read-out: Plant response rating, Foxtail, Giant; for pest or weed control at 125 g/ha: 125 g ai/ha; for pest or weed control at 500 g/ha: 500 g ai/ha
Summary of the method: as §2

[6] = test system: wheat (Triticum aestivum); assay: as above; details: Triticum aestivum, 240 h, 0 to 100 scale (0 no effect, 100 complete control), approx. 10 d, read-out: Plant response rating, Wheat; for plant injury at 125 g/ha: 125 g ai/ha; for plant injury at 500 g/ha: 500 g ai/ha
Summary of the method: as §2

[7] = test system: barnyardgrass (Echinochloa crus-galli); assay: as above; details: Echinochloa crus-galli, 240 h, 0 to 100 scale (0 no effect, 100 complete control), approx. 10 d, read-out: Plant response rating, Barnyardgrass; for pest or weed control at 125 g/ha: 125 g ai/ha; for pest or weed control at 500 g/ha: 500 g ai/ha
Summary of the method: as §2

[8] = test system: crabgrass, Large (large crabgrass, Digitaria sanguinalis); assay: as above; details: Digitaria sanguinalis, 240 h, 0 to 100 scale (0 no effect, 100 complete control), approx. 10 d, read-out: Plant response rating, Crabgrass, Large; for pest or weed control at 125 g/ha: 125 g ai/ha; for pest or weed control at 500 g/ha: 500 g ai/ha
Summary of the method: as §2

[9] = test system: morningglory (Ipomoea spp.); assay: as above; details: Ipomoea, 240 h, 0 to 100 scale (0 no effect, 100 complete control), approx. 10 d, read-out: Plant response rating, Morningglory; for pest or weed control at 125 g/ha: 125 g ai/ha; for pest or weed control at 500 g/ha: 500 g ai/ha
Summary of the method: as §2

[10] = test system: velvetleaf (Abutilon theophrasti); assay: as above; details: Abutilon theophrasti, 240 h, 0 to 100 scale (0 no effect, 100 complete control), approx. 10 d, read-out: Plant response rating, Velvetleaf; for pest or weed control at 125 g/ha: 125 g ai/ha; for pest or weed control at 500 g/ha: 500 g ai/ha
Summary of the method: as §2

Work on `Cc1cc(=O)n(-c2ccc(F)cc2)nc1Cn1ccc(C(F)(F)F)n1` [Compound 3, 2-(4-fluorophenyl)-5-methyl-6-[[3-(trifluoromethyl)-1H-pyrazol-1-yl]methyl]-3(2H)-pyridazinone] yielded a pest or weed control at 250 g/ha [1] of 0%, a pest or weed control at 250 g/ha [2] of 0% and a pest or weed control at 250 g/ha [3] of 0%. For the same molecule, the plant injury at 250 g/ha (rice (Oryza sativa)) was 0%, the pest or weed control at 125 g/ha ([4]; post-emergence, Postemergence) was 60% and the pest or weed control at 500 g/ha ([4]; post-emergence, Postemergence) was 70%. The pest or weed control at 125 g/ha ([4]; pre-emergence, Preemergence) was 20%, the pest or weed control at 500 g/ha ([4]; pre-emergence, Preemergence) was 80% and the Corn plant response rating (crop injury, 0 = no effect, 100 = complete kill) at 125 g/ha (corn (Zea mays); post-emergence, Postemergence) was 0%. The Corn plant response rating (crop injury, 0 = no effect, 100 = complete kill) at 500 g/ha (corn (Zea mays); post-emergence, Postemergence) was 20%, the Corn plant response rating (crop injury, 0 = no effect, 100 = complete kill) at 125 g/ha (corn (Zea mays); pre-emergence, Preemergence) was 0% and the Corn plant response rating (crop injury, 0 = no effect, 100 = complete kill) at 500 g/ha (corn (Zea mays); pre-emergence, Preemergence) was 0%. For the same molecule, the pest or weed control at 125 g/ha ([5]; post-emergence, Postemergence) was 10%, the pest or weed control at 500 g/ha ([5]; post-emergence, Postemergence) was 30% and the pest or weed control at 125 g/ha ([5]; pre-emergence, Preemergence) was 0%. For the same molecule, the pest or weed control at 500 g/ha ([5]; pre-emergence, Preemergence) was 40%, the plant injury at 125 g/ha ([6]; post-emergence, Postemergence) was 0% and the plant injury at 500 g/ha ([6]; post-emergence, Postemergence) was 0%. It also gave a plant injury at 125 g/ha ([6]; pre-emergence, Preemergence) of 0%, a plant injury at 500 g/ha ([6]; pre-emergence, Preemergence) of 0% and a pest or weed control at 125 g/ha ([7]; post-emergence, Postemergence) of 0%. It also gave a pest or weed control at 500 g/ha ([7]; post-emergence, Postemergence) of 10%, a pest or weed control at 125 g/ha ([7]; pre-emergence, Preemergence) of 0% and a pest or weed control at 500 g/ha ([7]; pre-emergence, Preemergence) of 20%. For the same molecule, the pest or weed control at 125 g/ha ([8]; post-emergence, Postemergence) was 10%, the pest or weed control at 500 g/ha ([8]; post-emergence, Postemergence) was 30% and the pest or weed control at 125 g/ha ([8]; pre-emergence, Preemergence) was 30%. For the same molecule, the pest or weed control at 500 g/ha ([8]; pre-emergence, Preemergence) was 90%, the pest or weed control at 125 g/ha ([9]; post-emergence, Postemergence) was 60% and the pest or weed control at 500 g/ha ([9]; post-emergence, Postemergence) was 70%. The pest or weed control at 125 g/ha ([9]; pre-emergence, Preemergence) was 0%, the pest or weed control at 500 g/ha ([9]; pre-emergence, Preemergence) was 0% and the pest or weed control at 125 g/ha ([10]; post-emergence, Postemergence) was 30%. For the same molecule, the pest or weed control at 500 g/ha ([10]; post-emergence, Postemergence) was 80%, the pest or weed control at 125 g/ha ([10]; pre-emergence, Preemergence) was 0% and the pest or weed control at 500 g/ha ([10]; pre-emergence, Preemergence) was 20%.
`CCOc1cc(=O)n(-c2ccc(F)cc2)nc1C(O)c1ccnc(C(F)(F)F)c1` (stereo not drawn) [Compound 23, 5-ethoxy-2-(4-fluorophenyl)-6-[hydroxy[2-(trifluoromethyl)-4-pyridinyl]methyl]-3(2H)-pyridazinone] gave a pest or weed control at 250 g/ha [1] of 80%, a pest or weed control at 250 g/ha [2] of 70% and a pest or weed control at 250 g/ha [3] of 10%. It also gave a plant injury at 250 g/ha (rice (Oryza sativa)) of 10%, a pest or weed control at 125 g/ha ([4]; post-emergence, Postemergence) of 100% and a pest or weed control at 500 g/ha ([4]; post-emergence, Postemergence) of 100%. The pest or weed control at 125 g/ha ([4]; pre-emergence, Preemergence) was 100%, the pest or weed control at 500 g/ha ([4]; pre-emergence, Preemergence) was 100% and the Corn plant response rating (crop injury, 0 = no effect, 100 = complete kill) at 125 g/ha (corn (Zea mays); post-emergence, Postemergence) was 50%. The Corn plant response rating (crop injury, 0 = no effect, 100 = complete kill) at 500 g/ha (corn (Zea mays); post-emergence, Postemergence) was 90%, the Corn plant response rating (crop injury, 0 = no effect, 100 = complete kill) at 125 g/ha (corn (Zea mays); pre-emergence, Preemergence) was 0% and the Corn plant response rating (crop injury, 0 = no effect, 100 = complete kill) at 500 g/ha (corn (Zea mays); pre-emergence, Preemergence) was 20%. It also gave a pest or weed control at 125 g/ha ([5]; post-emergence, Postemergence) of 50%, a pest or weed control at 500 g/ha ([5]; post-emergence, Postemergence) of 90% and a pest or weed control at 125 g/ha ([5]; pre-emergence, Preemergence) of 100%. The pest or weed control at 500 g/ha ([5]; pre-emergence, Preemergence) was 100%, the plant injury at 125 g/ha ([6]; post-emergence, Postemergence) was 80% and the plant injury at 500 g/ha ([6]; post-emergence, Postemergence) was 90%. It also gave a plant injury at 125 g/ha ([6]; pre-emergence, Preemergence) of 0%, a plant injury at 500 g/ha ([6]; pre-emergence, Preemergence) of 90% and a pest or weed control at 125 g/ha ([7]; post-emergence, Postemergence) of 20%. The pest or weed control at 500 g/ha ([7]; post-emergence, Postemergence) was 100%, the pest or weed control at 125 g/ha ([7]; pre-emergence, Preemergence) was 20% and the pest or weed control at 500 g/ha ([7]; pre-emergence, Preemergence) was 100%. For the same molecule, the pest or weed control at 125 g/ha ([8]; post-emergence, Postemergence) was 60%, the pest or weed control at 500 g/ha ([8]; post-emergence, Postemergence) was 100% and the pest or weed control at 125 g/ha ([8]; pre-emergence, Preemergence) was 100%. It also gave a pest or weed control at 500 g/ha ([8]; pre-emergence, Preemergence) of 100%, a pest or weed control at 125 g/ha ([9]; post-emergence, Postemergence) of 20% and a pest or weed control at 500 g/ha ([9]; post-emergence, Postemergence) of 60%. For the same molecule, the pest or weed control at 125 g/ha ([9]; pre-emergence, Preemergence) was 100%, the pest or weed control at 500 g/ha ([9]; pre-emergence, Preemergence) was 100% and the pest or weed control at 125 g/ha ([10]; post-emergence, Postemergence) was 20%. The pest or weed control at 500 g/ha ([10]; post-emergence, Postemergence) was 70%, the pest or weed control at 125 g/ha ([10]; pre-emergence, Preemergence) was 80% and the pest or weed control at 500 g/ha ([10]; pre-emergence, Preemergence) was 100%.
